{"source": "patent US20260306428A1", "about": "(The Trustees of Indiana University, priority 2023, published 2026)", "key": {"[1]": {"tested_on": "impacted chondrocytes", "test": "Chondrocyte viability by live/dead staining in impacted cartilage", "format": "cell-based, bovine", "conditions": "for rescue of chondrocyte viability following AMD: AMPK activation (EX229 1 μM and 10 μM) or SIRT1 activation (SRT1720 1 μM and 5 μM); for prevention of impact-induced chondrocyte death: EX229 1 μM and 10 μM, SRT1720 1 μM and 5 μM", "method": "Bovine cartilage was cultured with metformin following an impact from a drop tower device.\nAs a preliminary assessment, live/dead staining was evaluated in impacted bovine cartilage treated with specific pharmacological activators of AMPK and SIRT1 or left untreated with appropriate vehicle (DMSO).\nOne half of the explant was assessed for cell viability via live/dead staining, and the other half was stained with MitoTracker Green and TMRM to evaluate mitochondrial health."}, "[2]": {"conditions": "cited from earlier work"}, "[3]": {"tested_on": "Complex I", "conditions": "in vivo; cited from earlier work"}, "[4]": {"tested_on": "caspase 3/7", "test": "Apoptosis via activated caspase 3/7 signalling (CellEvent) in sublethally impacted cartilage explants", "format": "cell-based, bovine", "conditions": "sublethal impact, 24 hr post-impact", "source_text": "(§1) Bovine cartilage explants were impacted with sublethal force to evaluate the injury response in viable chondrocytes.\n(§2) Apoptosis and Oxidative Stress: Cartilage was removed from subchondral bone and stained for apoptosis via activated caspase 3/7signalling (CellEvent, Invitrogen) or ROS (CellRox, Invitrogen) 24 hr post-impact, as shown in FIG. 1A and FIG. 1B, respectively."}, "[5]": {"tested_on": "reactive oxygen species (ROS)", "test": "Oxidative stress / ROS staining (CellRox) in sublethally impacted cartilage explants", "format": "cell-based, bovine", "conditions": "sublethal impact, 24 hr post-impact, 10 mM", "source_text": "as §1, §2"}, "[6]": {"tested_on": "mitochondria in chondrocytes", "test": "Mitochondrial function (TMRM / MitoTracker Green red:green ratio) in cartilage explants", "format": "cell-based, bovine"}, "[7]": {"conditions": "oral, anti-diabetic treatment; cited from earlier work"}, "[8]": {"tested_on": "AMPK", "conditions": "role: activator; cited from earlier work"}, "[9]": {"tested_on": "SIRT1", "conditions": "role: activator; cited from earlier work"}, "[10]": {"tested_on": "Complex I", "conditions": "role: inhibitor; cited from earlier work"}, "[11]": {"conditions": "impacted, EX229 1 μM and 10 μM (FIG. 4A), SRT1720 1 μM and 5 μM (FIG. 4B)"}}}
{"compound": "Cc1ccc(Oc2nc3cc(-c4ccc5c(ccn5C)c4)c(Cl)cc3[nH]2)cc1C(=O)O", "note": "[EX229]", "values": [{"measurement": "rescue of chondrocyte viability following AMD", "setting": "[1]; impacted", "result": "rescues the AMD-induced decrease in chondrocyte viability"}, {"measurement": "cell viability (live/dead staining)", "setting": "[1]; [11]", "result": "improved cell viability in impacted chondrocytes in a dose-dependent manner"}, {"measurement": "prevention of impact-induced chondrocyte death", "setting": "[1]; impacted", "result": "neither of these activators completely prevented impact-induced chondrocyte death"}, {"measurement": "solubility in aqueous solutions", "setting": "[2]", "result": "low solubility"}]}
{"compound": "O=C(Nc1ccccc1-c1cn2c(CN3CCNCC3)csc2n1)c1cnc2ccccc2n1", "note": "[SRT1720]", "values": [{"measurement": "rescue of chondrocyte viability following AMD", "setting": "[1]; impacted", "result": "rescues chondrocyte viability following AMD"}, {"measurement": "cell viability (live/dead staining)", "setting": "[1]; [11]", "result": "improved cell viability in impacted chondrocytes in a dose-dependent manner"}, {"measurement": "prevention of impact-induced chondrocyte death", "setting": "[1]; impacted", "result": "neither of these activators completely prevented impact-induced chondrocyte death"}, {"measurement": "solubility in aqueous solutions", "setting": "[2]", "result": "low solubility"}]}
{"compound": "CCC1(CCC(C)C)C(=O)NC(=O)NC1=O", "note": "[amobarbital]", "values": [{"measurement": "block of mitochondrial electron transport at complex I", "setting": "[3]", "result": "blocks mitochondrial electron transport at complex I to prevent chondrocyte dysfunction and apoptosis"}]}
{"compound": "CN(C)C(=N)NC(=N)N.Cl", "note": "[metformin, 1,1-dimethylbiguanide hydrochloride]", "values": [{"measurement": "apoptotic signalling (caspase 3/7)", "setting": "[4]; 1 mM", "result": "only partially reduced apoptotic signalling"}, {"measurement": "apoptosis (caspase 3/7 signalling)", "setting": "[4]; 1 mM, 5 mM and 10 mM", "result": "dose-dependent decrease"}, {"measurement": "apoptosis (caspase 3/7)", "setting": "[4]; 10 mM", "result": "completely suppressed apoptosis"}, {"measurement": "oxidative stress (ROS)", "setting": "[5]", "result": "full suppression of oxidative stress"}, {"measurement": "cell viability (live/dead staining)", "setting": "[1]; drop tower impact, 24 hr post-impact, 10 mM", "result": "improved cell viability"}, {"measurement": "cell viability (live/dead staining)", "setting": "[1]; drop tower impact, 24 hr post-impact, 50 mM", "result": "completely rescue impacted chondrocytes"}, {"measurement": "cell viability (live/dead staining), data not shown", "setting": "[1]; impacted bovine cartilage, 125 mM, trends similar to mitochondrial function", "result": "showed similar trends"}, {"measurement": "mitochondrial dysfunction in impacted chondrocytes", "setting": "[6]; impacted explants, 24 hours post-impact, 10 mM and 50 mM", "result": "rescues mitochondrial dysfunction in impacted chondrocytes in a dose-dependent manner"}, {"measurement": "mitochondrial function of impacted chondrocytes", "setting": "[6]; impacted, 125 mM, vs untreated impacted chondrocytes", "result": "not significantly different from that of untreated impacted chondrocytes"}, {"measurement": "mitochondrial function of non-impacted chondrocytes", "setting": "[6]; non-impacted, 125 mM", "result": "slightly declined"}, {"measurement": "side effects", "setting": "[7]", "result": "nausea, vomiting, diarrhoea, and stomach pain"}, {"measurement": "activation of AMPK", "setting": "[8]", "result": "activates AMPK"}, {"measurement": "activation of SIRT1", "setting": "[9]", "result": "activates AMPK and SIRT1"}, {"measurement": "inhibition of Complex I", "setting": "[10]", "result": "inhibiting Complex I"}]}
